The results in this text go back to BindingDB's records for patent US12247013 (Antabio, 2025).

The test addresses Elastase (Pseudomonas aeruginosa (strain ATCC 15692 / DSM 22644 / CIP 104116 / JCM 14847 / LMG 12228 / 1C / PRS 101 / PAO1), UniProt P14756). As to the kind of experiment: Fluorometric Assay. The protocol:
Method: 10 to 140 ng/ml purified LasB is incubated with 250 μM Abz-Ala-Gly-Leu-Ala-p-Nitro-Benzyl-Amide in 50 mM Tris-HCl pH 7.4, 2.5 mM CaCl2), 0.01% of Triton X100 at 37° C. LasB activity (corresponding to fluorescence emission induced by substrate hydrolysis) is measured over 30 min at 37° C. with a fluorescence plate reader such as the Perkin Elmer Envision or similar. Different range of inhibitor concentrations are routinely assessed depending of inhibitor potency from 0.0016 to 200 μM (2-fold dilutions series) in order to determine IC50.

Sequence of Elastase (P14756 whole entry): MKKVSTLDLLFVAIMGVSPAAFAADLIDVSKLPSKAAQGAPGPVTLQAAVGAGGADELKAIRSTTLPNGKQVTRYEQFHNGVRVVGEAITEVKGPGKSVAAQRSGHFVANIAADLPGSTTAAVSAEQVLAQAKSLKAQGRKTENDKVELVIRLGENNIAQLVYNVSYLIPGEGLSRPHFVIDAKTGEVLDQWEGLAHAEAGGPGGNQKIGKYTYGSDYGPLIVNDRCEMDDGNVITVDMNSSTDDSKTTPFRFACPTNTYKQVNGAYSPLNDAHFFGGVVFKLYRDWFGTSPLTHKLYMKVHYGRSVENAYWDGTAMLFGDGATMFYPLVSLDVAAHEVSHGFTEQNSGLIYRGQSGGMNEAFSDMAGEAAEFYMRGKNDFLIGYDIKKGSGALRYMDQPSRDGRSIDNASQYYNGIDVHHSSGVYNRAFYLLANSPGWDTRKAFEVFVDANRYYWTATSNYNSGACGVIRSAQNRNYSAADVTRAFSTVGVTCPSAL

Consider `COc1cc2sc(CNC(=O)C3(CC(=O)O)Cc4cc(F)c(F)cc4C3)nc2cc1C(=O)N1CCN(C)CC1` [US12247013, Example 34], for which the Ki was under 50 nM.

The term Ki denotes a measure of affinity in units of concentration, obtained from inhibition or displacement. Read a high Ki as a looser hold on the target.
